Source: PubChem BioAssay (NCI)
Values joined by “and” are separate entries in the source; they are usually repeats but may differ in a detail not shown here. Identical values can stand only once.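 Five compound concentrations were applied to cells in 96-well plates for 48 hours; endpoints were derived by simple linear interpolation of the resulting dose-response curve. The concentration for 50% growth inhibition is given as GI50. The concentration for full growth arrest is given as TGI.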

What was measured:
Test in all cases: growth of human tumour cells (NCI), 48 h
[1] = system: CCRF-CEM leukemia
[2] = system: DU-145 prostate
[3] = system: EKVX NSCLC
[4] = system: HCT-116 colon
[5] = system: HOP-92 NSCLC
[6] = system: HT29 colon
[7] = system: K-562 leukemia
[8] = system: SK-MEL-5 melanoma
[9] = system: U251 CNS
[10] = system: UACC-62 melanoma

| Structure (SMILES) | GI50 [1] | TGI [1] | GI50 [2] | TGI [2] | GI50 [3] | TGI [3] | GI50 [4] | TGI [4] | GI50 [5] | TGI [5] | GI50 [6] | TGI [6] | GI50 [7] | TGI [7] | GI50 [8] | TGI [8] | GI50 [9] | TGI [9] | GI50 [10] | TGI [10] |
| --- | --- | --- | --- | --- | --- | --- | --- | --- | --- | --- | --- | --- | --- | --- | --- | --- | --- | --- | --- | --- |
| NC(=O)c1ccc2nc(-c3ccc(Oc4ccc(Cl)cc4)cc3)[nH]c2c1 | 23.5 µM and 15.7 µM | 75 µM and 64.1 µM | 35 µM and 13 µM | 75 µM and 29.8 µM | > 75 µM | > 75 µM | 8.14 µM and 12.3 µM | 75 µM and 33.4 µM | > 75 µM | > 75 µM | 21.6 µM and 12.3 µM | 75 µM and 28.1 µM | 37.8 µM and 10.3 µM | 75 µM and 88.3 µM | 28.7 µM and 7.98 µM | 75 µM and 23.7 µM | 56.6 µM and 9.01 µM | 75 µM and 22.6 µM | 75 µM and 16.4 µM | 75 µM and 30.7 µM |
| COc1ccc(-c2nc3ccccn3c2/C=C/C(=O)c2cc(OC)c(OC)c(OC)c2)cc1 | 18.8 µM | > 100 µM | 7.21 µM | 41.1 µM | 7.42 µM | > 100 µM | 2.26 µM | 11.1 µM | 2.36 µM | 51.4 µM | 4.8 µM | 32.4 µM | 13.1 µM | > 100 µM | 2.72 µM | 14.3 µM | 3 µM | 30.6 µM | 5.58 µM | > 100 µM |
| O=C(Nc1ccccc1)NS(=O)(=O)c1ccc(-n2nc3c(c2-c2ccc(Cl)cc2)Cc2ccccc2-3)cc1 | 3.21 µM | 10.2 µM | 19.4 µM | 47 µM | 15.8 µM | 78.9 µM | 22.5 µM | > 100 µM | 17.1 µM | 67 µM | 29.8 µM | > 100 µM | 4.66 µM | 21.9 µM | 22 µM | 69.8 µM | 22.3 µM | 63.2 µM | 12.2 µM | 30.6 µM |
| COc1cc(O)c(C(=O)/C=C/c2ccc(O)cc2)c(O)c1[C@@H]1C[C@H](CCc2ccc(O)cc2)O[C@H](c2ccc(O)cc2)C1 | 3.28 µM | 10.6 µM | 3.22 µM | 10.9 µM | 4.35 µM | 15.8 µM | 3.74 µM | 11.1 µM | 2 µM | 5.92 µM | 3.66 µM | 11.2 µM |  |  | 3.7 µM | 12.8 µM | 3.31 µM | 11.5 µM | 3.38 µM | 12.9 µM |
| CC(C)CCN=C(N)c1ccc(N2CCN(c3ccc(C(N)=NCCC(C)C)cc3)CC2)cc1 | 6.37 µM | 26.4 µM | 6.95 µM | 71.2 µM | 1 µM | 10.4 µM | 9.52 µM | 33.5 µM | 3.86 µM | 24.3 µM | 6.51 µM | 30.2 µM | 2.09 µM | > 100 µM | 3.06 µM | 7.97 µM | 13.9 µM | 32.9 µM | 16.8 µM | 33.8 µM |
| Fc1ccc(Nc2nc3nonc3nc2Nc2ccc(F)cc2)cc1 | 0.35 µM | 10.1 µM | 0.57 µM | 15 µM |  |  | 0.322 µM | 11.4 µM | 0.168 µM | 0.629 µM | 0.482 µM | 10.7 µM | 0.352 µM | 12.4 µM | 0.229 µM | 0.702 µM | 0.387 µM | 10.8 µM | 0.283 µM | 3.22 µM |
| CN1c2ccccc2C(C)(C)C12C=Cc1cc(O)ccc1O2 (centres undefined) | 2.87 µM | 10.2 µM | 2.56 µM | 8.17 µM | 3.66 µM | 14.5 µM | 2.8 µM | 11.8 µM | 1.81 µM | 5.88 µM | 3.33 µM | 11.6 µM | 3.09 µM | > 100 µM | 2.38 µM | 9.94 µM | 3.18 µM | 10.9 µM | 2.56 µM | 11.5 µM |
| O=[N+]([O-])c1c(Br)sc(Br)c1[N+](=O)[O-] | 1.11 µM | 4.15 µM | 6.8 µM | 19.6 µM | 9.3 µM | 23.8 µM |  |  | 1.87 µM | 3.57 µM | 1.7 µM | 3.47 µM | 0.815 µM | 3.99 µM | 4.88 µM | 17.2 µM | 2.15 µM | 5.46 µM | 1.87 µM | 4.68 µM |
